Data from patent EP1479388A1, “Ready to use gemcitabin solution concentrates” (STADA ARZNEIMITTEL AG, priority 2003, dated 2004).
≈ marks a conversion by molar mass, not a printed value. Structures can show the parent of a compound that is named as a salt. Where two headings read alike, the source gives them in different places.

Legend:
[1] = Saturation concentration of gemcitabine in aqueous-ethanolic solutions, HPLC (Beispiel 3); type: physicochemical; conditions: interpolation (Polynom 6. Grades), ca. 66 Vol.% Ethanolanteil, pH 10 +/-0,5
Text: Um die Sättigungskonzentration von Gemcitabin in wässrig-ethanolischeh Lösungen zu ermitteln, wurden Gemcitabin-Lösungen mit verschiedenen Volumenanteilen an Ethanol hergestellt und analysiert.
Hierzu wurde Gemcitabinhydrochlorid im Ansatzbehälter vorgelegt, mit einer stöchiometrischen Menge an wässrig gelöstem Alkalisierungsmittel (1 N Natronlauge) versetzt, anschließend mit jeweils 80 % der in Vortests ermittelten erforderlichen Mengen an Wasser für Injektionszwecke als auch mit jeweils erforderlichen Mengen an Ethanol versetzt.
Die im Ansatz enthaltenen Bestandteile wurden anschließend unter 6-stündigem Rühren bei Raumtemperatur (19-23 °C) derart gelöst, dass ein ungelöster Bodensatz an Gemcitabinhydrochlorid im Ansatzbehälter verblieb. Der pH-Wert des Ansatzes wurde potentiometrisch bestimmt und erforderlichenfalls mit 1 N Natronlauge bzw. 1 N Salzsäure auf einen pH-Wert von 10 eingestellt, um mit diesem pH-Wert eine vollständige Umsetzung des Gemcitabinhydrochlorids zur gelösten Gemcitabinbase zu erzielen.
Der Ansatz wurde 24 Stunden bei 19-23 °C gelagert. Der pH-Wert wurde anschließend kontrolliert und nur solche klaren Überstände der Ansätze weiterverarbeitet, deren pH-Werte 10 +/- 0,5 betrugen. Diese wurden dann partikelfrei filtriert und der Gehalt an Gemcitabin per HPLC bestimmt.

[2] = Maximum solubility in 66 Vol.-% ethanol after dissolving at 35-45 °C and cooling, HPLC (Beispiel 4); type: physicochemical; conditions: dissolved at 35-45 °C 6 h, cooled, 24 h at 19-23 °C
Procedure: Die maximale Löslichkeit von Gemcitabinhydrochlorid wurde unter weiterer Verwendung von 1 N Natronlauge, Wasser für Injektionszwecke und absolutem Ethanol, in als hierfür optimal erkanntem 66 Vol.-%-igem Anteil bei gesteigerten Lösungstemperaturen (35-45 °C, 6 Stunden Rühren) und anschließendem Abkühlen auf Raumtemperatur (19-23 °C) und 24-stündiger Lagerung bei 19-23 °C ermittelt. Hierbei wurde im partikelfreien Überstand der gelagerten Lösungen mittels HPLC ein Gehalt von 95,1 mg/ml Gemcitabin bzw. 108,3 mg/ml Gemcitabinhydrochlorid bestimmt.

[3] = cited from earlier work

Row | SMILES | Maximum der Gemcitabin-Löslichkeit [1] | maximale Löslichkeit (Gehalt im partikelfreien Überstand) ([2]; 1440 min) | solubility thermodynamic ([1]; 66 vol% aqueous ethanol, pH 10, organic solvent or mixture, read-out: Maximum der Gemcitabin-Löslichkeit) | solubility at 24 h ([2]; 66 vol% aqueous ethanol, organic solvent or mixture, read-out: maximale Löslichkeit (Gehalt im partikelfreien Überstand)) | Löslichkeit des Gemcitabins in Wasser ([3]; pH-Bereich von 2,7 bis 3,3) | Löslichkeit des Gemcitabins in Wasser ([3]; pH-Wert von 5) | Löslichkeit des Gemcitabins in Wasser ([3]; pH-Wert von 7) | Löslichkeit des Gemcitabins in Wasser ([3]; pH-Wert von 9)
1 | Nc1ccn([C@@H]2O[C@H](CO)[C@@H](O)C2(F)F)c(=O)n1 [Gemcitabinhydrochlorid] | 55 mg/mL | 108,3 mg/ml |  |  |  |  |  | 
2 | Nc1ccn([C@@H]2O[C@H](CO)[C@@H](O)C2(F)F)c(=O)n1 [Gemcitabin, 2'-Deoxy-2',2'-difluorcytidin] |  |  | 50 mg/mL (≈ 190 mM) | 95.1 mg/mL (≈ 361 mM) | ca. 38 mg/ml | 16,0 mg/ml | 15,3 mg/ml | 15,8 mg/ml
